Laboratory results: US20260028365A1 (BIOGEN MA INC., priority 2022, published 2026)

Tests used:
Tyk2 = Tyk2 (Homo sapiens (Human), UniProt P29597); experiment: pSTAT4 Cell Assay (MSD, NK92 cells); assay type: cell-based; settings: MSD
JH2 domain of human Tyk2 = JH2 domain of human Tyk2 (Homo sapiens (Human), UniProt P29597); experiment: JH2 Biochemical Assay (TR-FRET probe displacement); assay type: binding; settings: JH2 domain of human Tyk2, TR-FRET probe displacement
Sequence of JH2 domain of human Tyk2 (P29597 575-876): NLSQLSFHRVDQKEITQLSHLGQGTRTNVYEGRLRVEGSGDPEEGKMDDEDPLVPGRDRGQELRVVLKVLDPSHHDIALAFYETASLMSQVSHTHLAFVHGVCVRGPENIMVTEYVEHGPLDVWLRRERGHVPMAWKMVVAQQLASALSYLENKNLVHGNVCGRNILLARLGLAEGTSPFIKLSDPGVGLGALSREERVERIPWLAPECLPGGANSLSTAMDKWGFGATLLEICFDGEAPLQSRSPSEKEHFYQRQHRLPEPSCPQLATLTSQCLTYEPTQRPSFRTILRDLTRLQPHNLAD

Sequence of Tyk2 (P29597 whole entry, the tested form may be a part): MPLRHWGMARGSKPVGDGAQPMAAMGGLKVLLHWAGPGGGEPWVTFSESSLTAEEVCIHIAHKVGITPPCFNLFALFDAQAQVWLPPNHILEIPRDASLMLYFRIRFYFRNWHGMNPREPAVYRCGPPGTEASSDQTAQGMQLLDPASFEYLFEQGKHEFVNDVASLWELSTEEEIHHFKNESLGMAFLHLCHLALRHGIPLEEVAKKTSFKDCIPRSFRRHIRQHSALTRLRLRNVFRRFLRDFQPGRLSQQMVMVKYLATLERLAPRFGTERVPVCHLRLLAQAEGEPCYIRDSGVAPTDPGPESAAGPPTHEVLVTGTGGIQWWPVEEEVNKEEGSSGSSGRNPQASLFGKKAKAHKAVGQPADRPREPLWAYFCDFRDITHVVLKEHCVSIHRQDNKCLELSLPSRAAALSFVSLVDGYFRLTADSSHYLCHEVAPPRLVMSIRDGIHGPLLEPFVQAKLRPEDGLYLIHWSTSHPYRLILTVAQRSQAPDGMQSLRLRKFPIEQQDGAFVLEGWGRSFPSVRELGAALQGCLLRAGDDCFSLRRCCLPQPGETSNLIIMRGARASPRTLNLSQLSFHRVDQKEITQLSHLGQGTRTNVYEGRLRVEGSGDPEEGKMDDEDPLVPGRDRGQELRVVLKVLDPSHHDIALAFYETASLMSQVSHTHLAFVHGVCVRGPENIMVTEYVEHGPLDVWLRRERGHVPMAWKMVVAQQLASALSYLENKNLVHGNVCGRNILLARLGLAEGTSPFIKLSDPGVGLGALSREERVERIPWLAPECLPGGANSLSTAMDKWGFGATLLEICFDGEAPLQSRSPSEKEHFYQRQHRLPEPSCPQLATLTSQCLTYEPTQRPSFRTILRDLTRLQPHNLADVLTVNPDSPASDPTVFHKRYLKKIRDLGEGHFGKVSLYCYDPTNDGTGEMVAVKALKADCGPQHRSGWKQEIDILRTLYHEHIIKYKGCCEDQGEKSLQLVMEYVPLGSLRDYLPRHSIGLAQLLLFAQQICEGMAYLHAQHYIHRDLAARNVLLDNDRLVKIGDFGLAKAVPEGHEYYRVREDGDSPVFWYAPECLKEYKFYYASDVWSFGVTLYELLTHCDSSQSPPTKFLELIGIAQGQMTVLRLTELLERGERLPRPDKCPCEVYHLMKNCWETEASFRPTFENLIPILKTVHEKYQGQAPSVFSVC

Compound	IC50 (Tyk2) [nM]	IC50 (JH2 domain of human Tyk2) [nM]
CC(=O)Nc1cc(Nc2cc(C)nc(C(C)(F)F)n2)c(OC[C@@H]2CCN(C3CC3)C2)cn1 [Example 494, (R)-N-(5-((1-cyclopropylpyrrolidin-3-yl)methoxy)-4-((2-(1,1-difluoroethyl)-6-methylpyrimidin-4-yl)amino)pyridin-2-yl)acetamide]	10 to 100	≤ 10
CC(=O)Nc1cc(Nc2cc(C)nc(C(C)(F)F)n2)c(OCc2ccon2)cn1 [Example 495, N-(4-((2-(1,1-difluoroethyl)-6-methylpyrimidin-4-yl)amino)-5-(isoxazol-3-ylmethoxy)pyridin-2-yl)acetamide]	10 to 100	≤ 10
CC(=O)Nc1cc(Nc2cc(C)nc(C(C)(F)F)n2)c(OCc2nccn2C)cn1 [Example 496, N-(4-((2-(1,1-difluoroethyl)-6-methylpyrimidin-4-yl)amino)-5-((1-methyl-1H-imidazol-2-yl)methoxy)pyridin-2-yl)acetamide]	≥ 1000	10 to 100
CC(=O)Nc1cc(Nc2cc(C)nc(C(C)(F)F)n2)c(OCc2cc(C)on2)cn1 [Example 497, N-(4-((2-(1,1-difluoroethyl)-6-methylpyrimidin-4-yl)amino)-5-((5-methylisoxazol-3-yl)methoxy)pyridin-2-yl)acetamide]	10 to 100	≤ 10
CC(=O)Nc1cc(Nc2cc(C)nc(C(C)(F)F)n2)c(OCc2noc(C)n2)cn1 [Example 498, N-(4-((2-(1,1-difluoroethyl)-6-methylpyrimidin-4-yl)amino)-5-((5-methyl-1,2,4-oxadiazol-3-yl)methoxy)pyridin-2-yl)acetamide]	100 to 1000	≤ 10
CC(=O)Nc1cc(Nc2cc(C)nc(C(C)(F)F)n2)c(OCC2CCC(=O)O2)cn1 (centres unmarked) [Example 499, N-(4-((2-(1,1-difluoroethyl)-6-methylpyrimidin-4-yl)amino)-5-((5-oxotetrahydrofuran-2-yl)methoxy)pyridin-2-yl)acetamide]	10 to 100	≤ 10
CC(=O)Nc1cc(Nc2cc(C)nc(C(C)(F)F)n2)c(OC[C@@H]2CCC(=O)N2)cn1 [Example 500, (S)-N-(4-((2-(1,1-difluoroethyl)-6-methylpyrimidin-4-yl)amino)-5-((5-oxopyrrolidin-2-yl)methoxy)pyridin-2-yl)acetamide]	100 to 1000	≤ 10
CC(=O)Nc1cc(Nc2cc(C)nc(C(C)(F)F)n2)c(OCCC2CCCN2C)cn1 (centres unmarked) [Example 501, N-(4-((2-(1,1-difluoroethyl)-6-methylpyrimidin-4-yl)amino)-5-(2-(1-methylpyrrolidin-2-yl)ethoxy)pyridin-2-yl)acetamide]	100 to 1000	≤ 10
CC(=O)Nc1cc(Nc2cc(C)nc(C(C)(F)F)n2)c(OC[C@H]2CCC(=O)N2)cn1 [Example 502, (R)-N-(4-((2-(1,1-difluoroethyl)-6-methylpyrimidin-4-yl)amino)-5-((5-oxopyrrolidin-2-yl)methoxy)pyridin-2-yl)acetamide]	100 to 1000	≤ 10
CC(=O)Nc1cc(Nc2cc(C)nc(C(C)(F)F)n2)c(OCC2CN(C(C)C)CCO2)cn1 (centres unmarked) [Example 503, N-(4-((2-(1,1-difluoroethyl)-6-methylpyrimidin-4-yl)amino)-5-((4-isopropylmorpholin-2-yl)methoxy)pyridin-2-yl)acetamide]	10 to 100	≤ 10
CC(=O)Nc1cc(Nc2cc(C)nc(C(C)(F)F)n2)c(OCc2cnoc2)cn1 [Example 504, N-(4-((2-(1,1-difluoroethyl)-6-methylpyrimidin-4-yl)amino)-5-(isoxazol-4-ylmethoxy)pyridin-2-yl)acetamide]	10 to 100	≤ 10
CC(=O)Nc1cc(Nc2cc(C)nc(C(C)(F)F)n2)c(OCc2cocn2)cn1 [Example 505, N-(4-((2-(1,1-difluoroethyl)-6-methylpyrimidin-4-yl)amino)-5-(oxazol-4-ylmethoxy)pyridin-2-yl)acetamide]	10 to 100	≤ 10
CC(=O)Nc1cc(Nc2cc(C)nc(C(C)(F)F)n2)c(OCC2CN(C)C2)cn1 [Example 506, N-(4-((2-(1,1-difluoroethyl)-6-methylpyrimidin-4-yl)amino)-5-((1-methylazetidin-3-yl)methoxy)pyridin-2-yl)acetamide]	100 to 1000	≤ 10
CCOCCOc1cnc(NC(C)=O)cc1Nc1cc(C)nc(C(C)(F)F)n1 [Example 507, N-(4-((2-(1,1-difluoroethyl)-6-methylpyrimidin-4-yl)amino)-5-(2-ethoxyethoxy)pyridin-2-yl)acetamide]	≤ 10	≤ 10
CC(=O)Nc1cc(Nc2cc(C)nc(C(C)(F)F)n2)c(OCc2cnn(C)c2)cn1 [Example 508, N-(4-((2-(1,1-difluoroethyl)-6-methylpyrimidin-4-yl)amino)-5-((1-methyl-1H-pyrazol-4-yl)methoxy)pyridin-2-yl)acetamide]	10 to 100	≤ 10
CCn1cc(COc2cnc(NC(C)=O)cc2Nc2cc(C)nc(C(C)(F)F)n2)cn1 [Example 509, N-(4-((2-(1,1-difluoroethyl)-6-methylpyrimidin-4-yl)amino)-5-((1-ethyl-1H-pyrazol-4-yl)methoxy)pyridin-2-yl)acetamide]	10 to 100	≤ 10
CC(=O)Nc1cc(Nc2cc(C)nc(C(C)(F)F)n2)c(OCC2CC(=O)N(C(C)C)C2)cn1 (centres unmarked) [Example 510, N-(4-((2-(1,1-difluoroethyl)-6-methylpyrimidin-4-yl)amino)-5-((1-isopropyl-5-oxopyrrolidin-3-yl)methoxy)pyridin-2-yl)acetamide]	100 to 1000	≤ 10
CC(=O)Nc1cc(Nc2cc(C)nc(C(C)(F)F)n2)c(OCC2CC(=O)N(C)C2)cn1 (centres unmarked) [Example 511, N-(4-((2-(1,1-difluoroethyl)-6-methylpyrimidin-4-yl)amino)-5-((1-methyl-5-oxopyrrolidin-3-yl)methoxy)pyridin-2-yl)acetamide]	100 to 1000	10 to 100
COc1nn(C)cc1COc1cnc(NC(C)=O)cc1Nc1cc(C)nc(C(C)(F)F)n1 [Example 512, N-(4-((2-(1,1-difluoroethyl)-6-methylpyrimidin-4-yl)amino)-5-((3-methoxy-1-methyl-1H-pyrazol-4-yl)methoxy)pyridin-2-yl)acetamide]	100 to 1000	100 to 1000
CO[C@H]1CC[C@@H](Oc2cnc(NC(C)=O)cc2Nc2cc(C)nc(C(C)(F)F)n2)C1 [Example 513, N-(4-((2-(1,1-difluoroethyl)-6-methylpyrimidin-4-yl)amino)-5-(((1R,3S)-3-methoxycyclopentyl)oxy)pyridin-2-yl)acetamide]	10 to 100	≤ 10
CC(=O)Nc1cc(Nc2cc(C)nc(C(C)(F)F)n2)c(OC[C@]23C[C@](C)(CO2)C3)cn1 [Example 514, N-(4-((2-(1,1-difluoroethyl)-6-methylpyrimidin-4-yl)amino)-5-(((1s,4s)-4-methyl-2-oxabicyclo[2.1.1]hexan-1-yl)methoxy)pyridin-2-yl)acetamide]	≤ 10	≤ 10
CCOc1cnc(NC(C)=O)cc1Nc1cc(C)nc(C(F)(F)CC)n1 [Example 516, N-(4-((2-(1,1-difluoropropyl)-6-methylpyrimidin-4-yl)amino)-5-ethoxypyridin-2-yl)acetamide]	100 to 1000	≤ 10
